Measured values published in patent publication US20240000872A1, “NOVEL BACTERIOPHAGE THAT LYSES ACINETOBACTER GENUS BACTERIA HAVING RESISTANCE TO ANTIBIOTICS” (priority 2020, published 2024).

System: Acinetobacter baumannii strains
Assay: Antibiotic susceptibility test (CLSI disk diffusion test method, read per CLSI 2016)
Format: cell-based
Method: Strain identification was performed using a kit such as AT 32 GN system (bioMérieux, Marcy l'Etoile, France). […] In Table 2 below, S, I, and R are the results obtained by evaluating susceptibility to the antibacterial agents, in which ‘S’ means susceptible, ‘I’ means intermediate, and ‘R’ means resistant.
Strain identification was performed using a kit such as ATB 32 GN system (bioMédrieux, Marcy l'Etoile, France). […] In Table 6 below, S, I, and R are the results obtained by evaluating susceptibility to the antibacterial agents, in which ‘S’ means susceptible, ‘I’ means intermediate, and ‘R’ means resistant.
Strain identification was performed using a kit such as ATB 32 GN system (bioMérieux, Marcy l'Etoile, France). […] In Table 10 below, S, I, and R are the results obtained by evaluating susceptibility to the antibacterial agents, in which ‘S’ means susceptible, T means intermediate, and ‘R’ means resistant.

## CC(C)(O/N=C(\C(=O)N[C@@H]1C(=O)N2C(C(=O)[O-])=C(C[n+]3ccccc3)CS[C@H]12)c1csc(N)n1)C(=O)O [Ceftazidime, ceftazidime]
Host strain YMC14/01/C29
  antibiotic susceptibility class: R
Host strain YMC14/01/IP122
  antibiotic susceptibility class: R
Host strain YMC14/01/L8
  antibiotic susceptibility class: R
Host strain YMC14/01/P31
  antibiotic susceptibility class: R
Host strain YMC14/01/P117
  antibiotic susceptibility class: R
Host strain YMC14/01/P224
  antibiotic susceptibility class: R
Host strain YMC14/01/P727
  antibiotic susceptibility class: R
Host strain YMC14/01/P728
  antibiotic susceptibility class: R
Host strain YMC14/01/R130
  antibiotic susceptibility class: R
Host strain YMC14/01/R160
  antibiotic susceptibility class: R
Host strain YMC14/01/R198
  antibiotic susceptibility class: R
Host strain YMC14/01/R257
  antibiotic susceptibility class: R
Host strain YMC14/01/R270
  antibiotic susceptibility class: R
Host strain YMC14/01/R324
  antibiotic susceptibility class: R
Host strain YMC14/01/R443
  antibiotic susceptibility class: R
Host strain YMC14/01/R451
  antibiotic susceptibility class: R
Host strain YMC14/01/R560
  antibiotic susceptibility class: R
Host strain YMC14/01/R617
  antibiotic susceptibility class: I
Host strain YMC14/01/R671
  antibiotic susceptibility class: R
Host strain YMC14/01/R732
  antibiotic susceptibility class: R
Host strain YMC14/01/R767
  antibiotic susceptibility class: R
Host strain YMC14/01/R904
  antibiotic susceptibility class: R
Host strain YMC14/01/R905
  antibiotic susceptibility class: R
Host strain YMC14/01/R921
  antibiotic susceptibility class: R
Host strain YMC14/01/R941
  antibiotic susceptibility class: R
Host strain YMC14/01/R958
  antibiotic susceptibility class: R
Host strain YMC14/01/R1006
  antibiotic susceptibility class: R
Host strain YMC14/01/R1199
  antibiotic susceptibility class: R
Host strain YMC14/01/R1659
  antibiotic susceptibility class: R
Host strain YMC14/01/R1722
  antibiotic susceptibility class: R
Host strain YMC14/01/R1752
  antibiotic susceptibility class: R
Host strain YMC14/01/R2429
  antibiotic susceptibility class: R
Host strain YMC14/01/R2572
  antibiotic susceptibility class: R
Host strain YMC14/01/R2855
  antibiotic susceptibility class: R
Host strain YMC14/01/R2945
  antibiotic susceptibility class: R
Host strain YMC14/01/R3007
  antibiotic susceptibility class: R
Host strain YMC14/01/R3129
  antibiotic susceptibility class: R
Host strain YMC14/01/R3317
  antibiotic susceptibility class: R
Host strain YMC14/01/R3474
  antibiotic susceptibility class: R
Host strain YMC14/01/R3574
  antibiotic susceptibility class: R
Host strain YMC14/01/U313
  antibiotic susceptibility class: R
Host strain YMC14/01/U318
  antibiotic susceptibility class: R
Host strain YMC14/02/L18
  antibiotic susceptibility class: R
Host strain YMC14/02/P47
  antibiotic susceptibility class: R
Host strain YMC14/02/R1860
  antibiotic susceptibility class: R
Host strain YMC14/02/R2417
  antibiotic susceptibility class: R
Host strain YMC14/02/R2599
  antibiotic susceptibility class: R
Host strain YMC14/02/R2668
  antibiotic susceptibility class: R
Host strain YMC14/02/R2758
  antibiotic susceptibility class: R
Host strain YMC14/02/R2781
  antibiotic susceptibility class: R
Host strain YMC14/02/R3106
  antibiotic susceptibility class: R
Host strain YMC14/02/R3419
  antibiotic susceptibility class: R
Host strain YMC14/02/U1607
  antibiotic susceptibility class: R
Host strain YMC14/03/L9
  antibiotic susceptibility class: R
Host strain YMC14/03/P471
  antibiotic susceptibility class: R
Host strain YMC14/03/R122
  antibiotic susceptibility class: R
Host strain YMC14/03/R217
  antibiotic susceptibility class: R
Host strain YMC14/03/R380
  antibiotic susceptibility class: R
Host strain YMC14/03/R618
  antibiotic susceptibility class: R
Host strain YMC14/03/R2144
  antibiotic susceptibility class: R
Host strain YMC14/03/U4616
  antibiotic susceptibility class: R
Host strain YMC14/04/R1078
  antibiotic susceptibility class: R
Host strain YMC14/04/R1080
  antibiotic susceptibility class: R
Host strain YMC14/06/R2359
  antibiotic susceptibility S/I/R: R
  susceptibility category (S/I/R): R
Host strain YMC14/08/R1169
  antibiotic susceptibility S/I/R: R
  susceptibility category (S/I/R): R
Host strain YMC14/08/T90
  antibiotic susceptibility S/I/R: R
  susceptibility category (S/I/R): R
Host strain YMC15/02/R436
  antibiotic susceptibility S/I/R: R
  susceptibility category (S/I/R): R
Host strain YMC15/02/T28
  antibiotic susceptibility S/I/R: R
  susceptibility category (S/I/R): R
Host strain YMC15/03/R1604
  antibiotic susceptibility S/I/R: R
  susceptibility category (S/I/R): R
Host strain YMC15/09/R1869
  antibiotic susceptibility S/I/R: R
  susceptibility category (S/I/R): R
Host strain YMC16/01/P11
  antibiotic susceptibility S/I/R: R
  susceptibility category (S/I/R): R
Host strain YMC16/01/R123
  antibiotic susceptibility S/I/R: R
  susceptibility category (S/I/R): R
Host strain YMC16/01/R198
  antibiotic susceptibility S/I/R: R
  susceptibility category (S/I/R): R
Host strain YMC16/01/R353
  antibiotic susceptibility S/I/R: R
  susceptibility category (S/I/R): R
Host strain YMC16/01/R380
  antibiotic susceptibility S/I/R: R
  susceptibility category (S/I/R): R
Host strain YMC16/01/R397
  antibiotic susceptibility S/I/R: R
  susceptibility category (S/I/R): R
Host strain YMC16/01/R405
  antibiotic susceptibility S/I/R: R
  susceptibility category (S/I/R): R
Host strain YMC16/03/R4461
  antibiotic susceptibility S/I/R: R
  susceptibility category (S/I/R): R
Host strain YMC16/05/R2210
  antibiotic susceptibility S/I/R: R
  susceptibility category (S/I/R): R
Host strain YMC16/07/R2512
  antibiotic susceptibility S/I/R: R
  susceptibility category (S/I/R): R
Host strain YMC16/09/R2471
  antibiotic susceptibility S/I/R: R
  susceptibility category (S/I/R): R
Host strain YMC16/10/R2537
  antibiotic susceptibility S/I/R: R
  susceptibility category (S/I/R): R
Host strain YMC16/12/B11422
  antibiotic susceptibility S/I/R: R
  susceptibility category (S/I/R): R
Host strain YMC16/12/B11449
  antibiotic susceptibility S/I/R: R
  susceptibility category (S/I/R): R
Host strain YMC16/12/B13325
  antibiotic susceptibility S/I/R: R
  susceptibility category (S/I/R): R
Host strain YMC16/12/P503
  antibiotic susceptibility S/I/R: R
  susceptibility category (S/I/R): R
Host strain YMC16/12/R4637
  antibiotic susceptibility S/I/R: R
  susceptibility category (S/I/R): R
Host strain YMC17/01/B8053
  antibiotic susceptibility S/I/R: R
  susceptibility category (S/I/R): R
Host strain YMC17/01/B10087
  antibiotic susceptibility S/I/R: R
  susceptibility category (S/I/R): R
Host strain YMC17/01/B12075
  antibiotic susceptibility S/I/R: R
  susceptibility category (S/I/R): R
Host strain YMC17/01/B13454
  antibiotic susceptibility S/I/R: R
  susceptibility category (S/I/R): R
Host strain YMC17/01/P518
  antibiotic susceptibility S/I/R: R
  susceptibility category (S/I/R): R
Host strain YMC17/01/R2812
  antibiotic susceptibility S/I/R: R
  susceptibility category (S/I/R): R
Host strain YMC17/02/B14
  antibiotic susceptibility S/I/R: R
  susceptibility category (S/I/R): R
Host strain YMC17/02/B87
  antibiotic susceptibility S/I/R: R
  susceptibility category (S/I/R): R
Host strain YMC17/02/B721
  antibiotic susceptibility S/I/R: R
  susceptibility category (S/I/R): R
Host strain YMC17/02/B4039
  antibiotic susceptibility S/I/R: R
  susceptibility category (S/I/R): R
Host strain YMC17/02/B4520
  antibiotic susceptibility S/I/R: R
  susceptibility category (S/I/R): R
Host strain YMC17/02/B4864
  antibiotic susceptibility S/I/R: S
  susceptibility category (S/I/R): S
Host strain YMC17/02/B8414
  antibiotic susceptibility S/I/R: R
  susceptibility category (S/I/R): R
Host strain YMC17/02/P523
  antibiotic susceptibility S/I/R: R
  susceptibility category (S/I/R): R
Host strain YMC17/02/R541
  antibiotic susceptibility S/I/R: R
  susceptibility category (S/I/R): R
Host strain YMC17/02/R2392
  antibiotic susceptibility S/I/R: R
  susceptibility category (S/I/R): R
Host strain YMC17/03/B4730
  antibiotic susceptibility S/I/R: R
  susceptibility category (S/I/R): R
Host strain YMC17/03/B5000
  antibiotic susceptibility S/I/R: R
  susceptibility category (S/I/R): R
Host strain YMC17/03/P971
  antibiotic susceptibility S/I/R: R
  susceptibility category (S/I/R): R
Host strain YMC17/03/R348
  antibiotic susceptibility S/I/R: R
  susceptibility category (S/I/R): R
Host strain YMC17/03/R585
  antibiotic susceptibility S/I/R: R
  susceptibility category (S/I/R): R
Host strain YMC17/03/R1888
  antibiotic susceptibility S/I/R: R
  susceptibility category (S/I/R): R
Host strain YMC17/03/R3279
  antibiotic susceptibility S/I/R: R
  susceptibility category (S/I/R): R
Host strain YMC17/03/R4077
  antibiotic susceptibility S/I/R: R
  susceptibility category (S/I/R): R
Host strain YMC17/03/R4607
  antibiotic susceptibility S/I/R: R
  susceptibility category (S/I/R): R
Host strain YMC17/04/R488
  antibiotic susceptibility S/I/R: R
  susceptibility category (S/I/R): R
Host strain YMC17/04/R640
  antibiotic susceptibility S/I/R: R
  susceptibility category (S/I/R): R
Host strain YMC/17/05/R1095
  antibiotic susceptibility S/I/R: R
  susceptibility category (S/I/R): R
